Data taken from US20130158098A1, “Alkenyl Substituted Cycloaliphatic Compounds as Chemical Inducers of Proximity” (priority 2010, published 2013).

Legend:
[1] = biological target: T1, GFP-PYLcs and ABIcs localization fusion proteins (Arabidopsis thaliana, UniProt Q8VZS8); assay: ABA-induced subcellular relocalization of PYLcs fusion proteins; type: cell-based
T1 construct: A fragment of PYL1 (aa 33-209) is fused to full length GFP or SOS; HA (from the reverse primer); expressed in transfected cells; host or cells: HEK 293 / HEK 293T
T1 sequence (Q8VZS8 33-209): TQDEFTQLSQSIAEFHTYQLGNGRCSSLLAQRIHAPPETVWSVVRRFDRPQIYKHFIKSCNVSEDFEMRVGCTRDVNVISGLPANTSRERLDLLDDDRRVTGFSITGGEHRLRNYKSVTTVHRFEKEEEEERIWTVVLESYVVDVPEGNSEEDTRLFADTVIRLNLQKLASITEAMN
T1 sequence (P49597 126-423 partner): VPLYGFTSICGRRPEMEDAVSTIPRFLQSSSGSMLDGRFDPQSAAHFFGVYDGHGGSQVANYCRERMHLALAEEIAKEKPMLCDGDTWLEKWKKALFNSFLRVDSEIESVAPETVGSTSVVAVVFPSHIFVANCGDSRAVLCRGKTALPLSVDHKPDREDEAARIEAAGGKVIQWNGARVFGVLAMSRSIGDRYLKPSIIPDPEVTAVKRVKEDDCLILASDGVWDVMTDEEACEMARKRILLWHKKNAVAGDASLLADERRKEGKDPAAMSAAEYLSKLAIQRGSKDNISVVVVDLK
Method: (§1) A fragment of ABI1 (aa 126-423) is either fused to full length mouse Brg, full length mouse Numb, full length human CD4 or myristoylation signal. A fragment of PYL1 (aa 33-209) is fused to full length GFP or SOS. Full length SOS is fused either to myristoylation signal or three copies of FKBP12.
(§2) Cells grown on glass coverslips were washed in phosphate-buffered saline (PBS) and fixed with 4% paraformaldehyde (PFA, prepared in PBS) at room temperature for 20 min. After three 5-min washes in PBS, the cells were permeabilized with 5% normal goat serum and 0.1% Triton X-100 in PBS at room temperature for 30 min and incubated with primary antibodies (FLAG antibody M2, Agilent, cat. #200472-21) at 4° C. overnight in the same buffer. The slides were subsequently washed three times with PBS (5 min each wash) and then incubated with Alexa fluorophore 594-conjugated secondary antibodies (Molecular Probes) for 1 hour at room temperature in the dark. Slides were washed three times in PBS for 5 min. Finally, the slides were mounted in Vectashield containing 4′,6-diamidino-2-phenylindole (DAPI; H-1500, Vector Laboratories) and imaged (63×) with a Leica DM5000B microscope.
(§3) The area and integrated fluorescence intensity of the whole cell and the nucleus were measured with Fiji (an open-source image processing package based on ImageJ) for images from the cytoplasmic or nuclear localization experiments. The area and the integrated fluorescence intensity of the cytoplasm were calculated by subtracting the value of the nucleus from the whole cell. The mean fluorescence intensity of nucleus or cytoplasm was calculated by dividing the integrated fluorescence intensity with the area of each subcellular compartment. The ratio between nuclear or cytoplasmic distribution was calculated by comparing the corresponding mean fluorescence intensity. Twenty cells were measured in each experiment.
(§4) The activities of proteins are often regulated by their subcellular localization. In another variation of domain reconstitution, the ability of ABA-induced proximity to control the localization of a chosen protein was tested. Fusions of ABIcs to specific subcellular localization domains were constructed and ABA was used to dimerize these ABIcs localization fusion proteins to green fluorescent protein (GFP)-fused PYLcs. The relocation of GFP-PYLcs to four subcellular locations was induced by fusing ABIcs to (i) Numb to serve as a cytoplasmic localization partner (Dho, S. E. et al. (1999) Characterization of four mammalian Numb protein isoforms: Identification of cytoplasmic and membrane-associated variants of the phosphotyrosine binding domain. J. Biol. Chem. 274, 33097-33104), (ii) to a nuclear localization sequence (NLS) or to Brg1 (Brm/SWI2-related gene 1) to serve as nuclear localization partners (Khavari, P. A. et al. (1993) BRG1 contains a conserved domain of the SWI2/SNF2 family necessary for normal mitotic growth and transcription. Nature 366, 170-174), (iii) to CD4 (cluster of differentiation 4) to serve as a plasma membrane localization partner (Sattentau, Q. J. et al. (1988) The CD4 antigen: Physiological ligand and HIV receptor. Cell 52, 631-633), or (iv) to a myristoylation (myr) sequence to serve as a plasma membrane and an intracellular membrane localization partner (Holsinger, L. J. et al. (1995) Signal transduction in T lymphocytes using a conditional allele of Sos. Proc. Natl. Acad. Sci. U.S.A. 92, 9810-9814)).

[2] = biological target: T2, GFP-PYLcs and ABIcs localization fusion proteins (Arabidopsis thaliana, UniProt Q8VZS8); assay: as above; type: cell-based; settings: NLS-ABIcs present; HEK 293T cells
T2 construct: A fragment of PYL1 (aa 33-209) is fused to full length GFP or SOS; HA (from the reverse primer); expressed in transfected cells; host or cells: HEK 293 / HEK 293T
T2 sequence (Q8VZS8 33-209): T1 sequence (Q8VZS8 33-209)
T2 sequence (P49597 126-434 partner): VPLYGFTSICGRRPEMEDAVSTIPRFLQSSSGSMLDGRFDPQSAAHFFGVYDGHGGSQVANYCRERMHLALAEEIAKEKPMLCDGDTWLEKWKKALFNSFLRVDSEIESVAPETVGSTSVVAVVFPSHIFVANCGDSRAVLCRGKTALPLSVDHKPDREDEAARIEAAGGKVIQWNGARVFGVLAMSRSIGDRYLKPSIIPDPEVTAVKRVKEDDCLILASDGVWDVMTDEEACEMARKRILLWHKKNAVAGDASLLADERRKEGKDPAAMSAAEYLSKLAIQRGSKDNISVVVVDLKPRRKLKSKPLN
Method: as §1, §2, §3, §4

For `CC1=CC(=O)CC(C)(C)C1(O)/C=C/C(C)=C/C(=O)O` (centres unmarked) [ABA, abscisic acid], the “time to relocalization of mCherry-PYLcs to Brg-ABIcs (nucleus)” value ([1]; 293T cells, ABA and Rap added together) was at most 30 min, the “membrane localization of GFP-PYLcs to myr-ABIcs, specificity” value ([1]; 293T cells, ABA or Rap added) was “observed only when the matching small molecule was added” and the “time to relocation of GFP-PYLcs to the nucleus or membrane” value ([1]; Brg1-ABIcs or CD4-ABIcs, HEK 293T cells) was at most 30 min. The “time to cytoplasmic accumulation of GFP-PYLcs” value ([1]; Numb-ABIcs, HEK 293T cells) was at most 30 min and the “redistribution of cytoplasmic Numb-GFP-PYLcs into the nucleus” value [2] was “triggered the redistribution”.
